Assay results published in patent publication US4303664A, “Novel penicillin derivatives containing a coumarin nucleus and medicines containing the same” (Teijin Limited, priority 1978, dated 1981).
≈ marks a conversion by molar mass, not a printed value.

What was measured:
[1] = tested on: Morganella var. G-2; test: Bactericidal test (MIC), Morganella var. G-2; format: cell-based; conditions: VAR.G2; (9) Morganella var. G-2; read-out: MIC
Excerpt: (§1) Results of bactericidal tests (MIC, r/ml) on the penicillin derivatives of this invention prepared in the above examples are shown in the following table.

[2] = tested on: Pseudomonas aeruginosa 130; test: Bactericidal test (MIC), Pseudomonas aeruginosa 130; format: cell-based; conditions: (16) Pseudomonas aeruginosa 130
Excerpt: as §1

[3] = tested on: Pseudomonas aeruginosa 0-37; test: Bactericidal test (MIC), Pseudomonas aeruginosa 0-37; format: cell-based; conditions: 037; (13) Pseudomonas aeruginosa 0-37
Excerpt: as §1

[4] = tested on: Staphylococcus aureus 209-p; test: Bactericidal test (MIC), Staphylococcus aureus 209-p; format: cell-based; conditions: (1) Staphylococcus aureus 209-p
Excerpt: as §1

[5] = tested on: Enterobacter cloacae IF012937; test: Bactericidal test (MIC), Enterobacter cloacae IF012937; format: cell-based; conditions: (8) Enterobacter cloacae IF012937
Excerpt: as §1

[6] = tested on: Rettgerella var. Tid-21; test: Bactericidal test (MIC), Rettgerella var. Tid-21; format: cell-based; conditions: (10) Rettgerella var. Tid-21; read-out: MIC
Excerpt: as §1

[7] = tested on: Salmonella typhimurium G-20; test: Bactericidal test (MIC), Salmonella typhimurium G-20; format: cell-based; conditions: Salmonella enterica; (4) Salmonella typhimurium G-20
Excerpt: as §1

[8] = tested on: Klebsiella neumoniae ATCC10031; test: Bactericidal test (MIC), Klebsiella neumoniae ATCC10031; format: cell-based; conditions: (6) Klebsiella neumoniae ATCC10031; read-out: MIC
Excerpt: as §1

[9] = Acute toxicity values [(LD50), mouse]; conditions: in vivo
Excerpt: Acute toxicity values [(LD50), mouse] of some penicillin derivatives of this invention are illustrated in the following table.

[10] = tested on: Enterobactor cloacae 147; test: Bactericidal test (MIC), Enterobactor cloacae 147; format: cell-based; conditions: (7) Enterobactor cloacae 147
Excerpt: as §1

[11] = tested on: Escherichia Coli NIHJ JC-2; test: Bactericidal test (MIC), Escherichia Coli NIHJ JC-2; format: cell-based; conditions: NIHJJC2; (5) Escherichia Coli NIHJ JC-2
Excerpt: as §1

[12] = tested on: Pseudomonas aeruginosa GN-315; test: Bactericidal test (MIC), Pseudomonas aeruginosa GN-315; format: cell-based; conditions: GN315; (15) Pseudomonas aeruginosa GN-315
Excerpt: as §1

[13] = tested on: Bacillus subtilis; test: Bactericidal test (MIC), Bacillus subtilis; format: cell-based; conditions: (3) Bacillus subtilis
Excerpt: as §1

[14] = tested on: Pseudomonas aeruginosa Tid-53; test: Bactericidal test (MIC), Pseudomonas aeruginosa Tid-53; format: cell-based; conditions: TID53; (14) Pseudomonas aeruginosa Tid-53
Excerpt: as §1

[15] = tested on: Staphylococcus aureus 1248; test: Bactericidal test (MIC), Staphylococcus aureus 1248; format: cell-based; conditions: (2) Staphylococcus aureus 1248; read-out: MIC
Excerpt: as §1

[16] = tested on: Serratia G-18; test: Bactericidal test (MIC), Serratia G-18; format: cell-based; conditions: G18; (11) Serratia G-18; read-out: MIC
Excerpt: as §1

[17] = tested on: Pseudomonas aeruginosa IFO-3080; test: Bactericidal test (MIC), Pseudomonas aeruginosa IFO-3080; format: cell-based; conditions: IFO3080; (12) Pseudomonas aeruginosa IFO-3080; read-out: MIC
Excerpt: as §1

[18] = Rates of protein fixation (human serum protein); format: in vitro ADME; conditions: read-out: Rate of protein fixation (converted)
Excerpt: Rates of protein fixation (human serum protein) of the penicillin derivatives of this invention are illustrated as follows: […]

fraction unbound [18]	SMILES	MIC [1] [µg/mL]	MIC [2] [µg/mL]	MIC [3] [µg/mL]	MIC [4] [µg/mL]	MIC [5] [µg/mL]	MIC [6] [µg/mL]	MIC [7] [µg/mL]	MIC [8] [µg/mL]	LD50 ([9]; Oral) [mg/kg]	LD50 ([9]; ip, Intraabdominal) [mg/kg]	MIC [10] [µg/mL]	MIC [11] [µg/mL]	MIC [12] [µg/mL]	MIC [13] [µg/mL]	MIC [14] [µg/mL]	MIC [15] [µg/mL]	MIC [16] [µg/mL]	MIC [17] [µg/mL]
–	COc1cccc2cc(C(=O)N[C@@H](C(=O)N[C@@H]3C(=O)N4[C@@H]3SC(C)(C)[C@@H]4C(=O)O)c3ccc(O)cc3)c(=O)oc12 [Example 18, D(-)-α-(8-Methoxycoumarin-3-carbonamido)-p-hydroxylbenzylpenicillin]	3.13 (≈ 5.51 µM)	1.56 (≈ 2.75 µM)	12.5 (≈ 22 µM)	< 0.4	3.13 (≈ 5.51 µM)	3.13 (≈ 5.51 µM)	< 0.4	0.8 (≈ 1.41 µM)	> 4000	2000	3.13 (≈ 5.51 µM)	< 0.4	3.13 (≈ 5.51 µM)	< 0.4	3.13 (≈ 5.51 µM)	1.56 (≈ 2.75 µM)	6.25 (≈ 11 µM)	0.8 (≈ 1.41 µM)
0.2	CC1(C)S[C@@H]2[C@H](NC(=O)[C@H](NC(=O)c3cc4cc(Br)ccc4oc3=O)c3ccccc3)C(=O)N2[C@H]1C(=O)O [Example 3, D(-)-α-(6-Bromocoumarin-3-carbonamido)benzylpenicillin]	6.25 (≈ 10.4 µM)	1.56 (≈ 2.6 µM)	25 (≈ 41.6 µM)	< 0.4	25 (≈ 41.6 µM)	6.25 (≈ 10.4 µM)	< 0.4	1.56 (≈ 2.6 µM)	–	–	3.13 (≈ 5.21 µM)	< 0.4	6.25 (≈ 10.4 µM)	< 0.4	6.25 (≈ 10.4 µM)	1.56 (≈ 2.6 µM)	25 (≈ 41.6 µM)	1.56 (≈ 2.6 µM)
–	COC(=O)c1cccc2cc(C(=O)N[C@@H](C(=O)N[C@@H]3C(=O)N4[C@@H]3SC(C)(C)[C@@H]4C(=O)O)c3ccccc3)c(=O)oc12 [Example 14, D(-)-α-(8-Methoxycarbonylcoumarin-3-carbonamido)benzylpenicillin]	1.56 (≈ 2.69 µM)	3.13 (≈ 5.4 µM)	100 (≈ 173 µM)	< 0.4	6.25 (≈ 10.8 µM)	12.5 (≈ 21.6 µM)	< 0.4	1.56 (≈ 2.69 µM)	–	–	25 (≈ 43.1 µM)	< 0.4	12.5 (≈ 21.6 µM)	< 0.4	25 (≈ 43.1 µM)	3.13 (≈ 5.4 µM)	12.5 (≈ 21.6 µM)	3.13 (≈ 5.4 µM)
–	CC(=O)Oc1ccc2oc(=O)c(C(=O)N[C@@H](C(=O)N[C@@H]3C(=O)N4[C@@H]3SC(C)(C)[C@@H]4C(=O)O)c3ccc(O)cc3)cc2c1 [Example 17, D(-)-α-(6-Acetoxycoumarin-3-carbonamido)-p-hydroxybenzylpenicillin]	12.5 (≈ 21 µM)	1.56 (≈ 2.62 µM)	25 (≈ 42 µM)	< 0.4	12.5 (≈ 21 µM)	3.13 (≈ 5.26 µM)	< 0.4	3.13 (≈ 5.26 µM)	–	–	12.5 (≈ 21 µM)	< 0.4	3.13 (≈ 5.26 µM)	< 0.4	6.25 (≈ 10.5 µM)	3.13 (≈ 5.26 µM)	50 (≈ 84 µM)	0.8 (≈ 1.34 µM)
–	COc1ccc2cc(C(=O)N[C@@H](C(=O)N[C@@H]3C(=O)N4[C@@H]3SC(C)(C)[C@@H]4C(=O)O)c3ccccc3)c(=O)oc2c1 [Example 8, D(-)-α-(7-Methoxycoumarin-3-carbonamido)benzylpenicillin]	3.13 (≈ 5.67 µM)	3.13 (≈ 5.67 µM)	25 (≈ 45.3 µM)	< 0.4	6.25 (≈ 11.3 µM)	6.25 (≈ 11.3 µM)	< 0.4	< 0.4	–	–	1.56 (≈ 2.83 µM)	< 0.4	3.13 (≈ 5.67 µM)	< 0.4	3.13 (≈ 5.67 µM)	< 0.4	12.5 (≈ 22.7 µM)	1.56 (≈ 2.83 µM)
–	CC1(C)S[C@@H]2[C@H](NC(=O)[C@H](NC(=O)c3cc4ccccc4oc3=O)c3ccccc3)C(=O)N2[C@H]1C(=O)O [Example 1, D(-)-α-(Coumarin-3-carbonamido)benzylpenicillin]	3.13 (≈ 6 µM)	< 0.4	12.5 (≈ 24 µM)	< 0.4	6.25 (≈ 12 µM)	1.56 (≈ 2.99 µM)	< 0.4	< 0.4	> 4000	–	3.13 (≈ 6 µM)	< 0.4	1.56 (≈ 2.99 µM)	< 0.4	3.13 (≈ 6 µM)	1.56 (≈ 2.99 µM)	12.5 (≈ 24 µM)	< 0.4
0.33	CC1(C)S[C@@H]2[C@H](NC(=O)[C@H](NC(=O)c3cc4cc(Cl)ccc4oc3=O)c3ccccc3)C(=O)N2[C@H]1C(=O)O [Example 2, D(-)-α-(6-Chlorocoumarin-3-carbonamido)benzylpenicillin]	12.5 (≈ 22.5 µM)	6.25 (≈ 11.2 µM)	50 (≈ 89.9 µM)	< 0.4	25 (≈ 45 µM)	12.5 (≈ 22.5 µM)	< 0.4	1.56 (≈ 2.81 µM)	–	–	25 (≈ 45 µM)	< 0.4	25 (≈ 45 µM)	< 0.4	25 (≈ 45 µM)	1.56 (≈ 2.81 µM)	50 (≈ 89.9 µM)	3.13 (≈ 5.63 µM)
–	CC1(C)S[C@@H]2[C@H](NC(=O)[C@H](NC(=O)c3cc4cc(O)ccc4oc3=O)c3ccccc3)C(=O)N2[C@H]1C(=O)O [Example 10, D(-)-α-(6-Hydroxycoumarin-3-carbonamido)benzylpenicillin]	6.25 (≈ 11.6 µM)	3.13 (≈ 5.82 µM)	25 (≈ 46.5 µM)	< 0.4	100 (≈ 186 µM)	6.25 (≈ 11.6 µM)	< 0.4	0.8 (≈ 1.49 µM)	–	–	3.13 (≈ 5.82 µM)	< 0.4	3.13 (≈ 5.82 µM)	< 0.4	6.25 (≈ 11.6 µM)	1.56 (≈ 2.9 µM)	12.5 (≈ 23.3 µM)	1.56 (≈ 2.9 µM)
–	CC(=O)Oc1ccc2cc(C(=O)N[C@@H](C(=O)N[C@@H]3C(=O)N4[C@@H]3SC(C)(C)[C@@H]4C(=O)O)c3ccccc3)c(=O)oc2c1 [Example 12, D(-)-α-(7-Acetoxycoumarin-3-carbonamido)benzylpenicillin]	25 (≈ 43.1 µM)	1.56 (≈ 2.69 µM)	50 (≈ 86.3 µM)	< 0.4	100 (≈ 173 µM)	12.5 (≈ 21.6 µM)	< 0.4	12.5 (≈ 21.6 µM)	–	–	12.5 (≈ 21.6 µM)	< 0.4	6.25 (≈ 10.8 µM)	< 0.4	6.25 (≈ 10.8 µM)	3.13 (≈ 5.4 µM)	100 (≈ 173 µM)	1.56 (≈ 2.69 µM)
0.55	CC1(C)S[C@@H]2[C@H](NC(=O)[C@H](NC(=O)c3cc4ccccc4oc3=O)c3ccc(O)cc3)C(=O)N2[C@H]1C(=O)O [Example 16, D(-)-α-(Coumarin-3-carbonamido)-p-hydroxybenzylpenicillin]	12.5 (≈ 23.3 µM)	1.56 (≈ 2.9 µM)	25 (≈ 46.5 µM)	< 0.4	25 (≈ 46.5 µM)	1.56 (≈ 2.9 µM)	< 0.4	6.25 (≈ 11.6 µM)	–	–	6.25 (≈ 11.6 µM)	< 0.4	3.13 (≈ 5.82 µM)	< 0.4	6.25 (≈ 11.6 µM)	1.56 (≈ 2.9 µM)	50 (≈ 93 µM)	0.8 (≈ 1.49 µM)
–	Cc1ccc2oc(=O)c(C(=O)N[C@@H](C(=O)N[C@@H]3C(=O)N4[C@@H]3SC(C)(C)[C@@H]4C(=O)O)c3ccccc3)c(C)c2c1 [Example 5, D(-)-α-(4,6-Dimethylcoumarin-3-carbonamido)benzylpenicillin]	25 (≈ 45.5 µM)	12.5 (≈ 22.7 µM)	200 (≈ 364 µM)	< 0.4	50 (≈ 91 µM)	25 (≈ 45.5 µM)	< 0.4	0.8 (≈ 1.46 µM)	–	–	100 (≈ 182 µM)	< 0.4	50 (≈ 91 µM)	< 0.4	50 (≈ 91 µM)	1.56 (≈ 2.84 µM)	50 (≈ 91 µM)	12.5 (≈ 22.7 µM)
